Literature values in US11752221B2, “Brush-arm star polymer imaging agents and uses thereof” (priority 2017, dated 2023).
Several values for one entry are separate records, joined by “and”; a condition that tells them apart may be missing. Equal values may be shown once. Read-outs that look alike come from different tables or passages of the source.

Columns and labels:
[1] = earlier studies
[2] = 0.2 mM nitroxide, 4.0 mM Asc
subcutaneous C26 tumors = details: 0.23 mmol Gd/kg iv dose, after 4 hours

Row | SMILES | r1 (per-chex for chex polymers) [1] | Initial kinetics (<1 h) k × 10^4 ([2]; 0.0 mM GSH, data used IPH) | Initial kinetics (<1 h) k′ × 10^4 ([2]; 0.0 mM GSH, data used IPH) | Initial kinetics Avg k × 10^4 ([2]; 0.0 mM GSH, data used IPH) | Initial kinetics (<1 h) k × 10^4 ([2]; 0.0 mM GSH, data used PH) | Initial kinetics (<1 h) k′ × 10^4 ([2]; 0.0 mM GSH, data used PH) | Initial kinetics Avg k × 10^4 ([2]; 0.0 mM GSH, data used PH) | Late kinetics (>1 h) k × 10^4 ([2]; 0.0 mM GSH, data used PH) | Late kinetics (>1 h) k′ × 10^4 ([2]; 0.0 mM GSH, data used PH) | Initial kinetics (<1 h) k × 10^4 ([2]; 5.0 mM GSH, data used IPH) | Initial kinetics (<1 h) k′ × 10^4 ([2]; 5.0 mM GSH, data used IPH) | Initial kinetics Avg k × 10^4 ([2]; 5.0 mM GSH, data used IPH) | Initial kinetics (<1 h) k × 10^4 ([2]; 5.0 mM GSH, data used PH) | Initial kinetics (<1 h) k′ × 10^4 ([2]; 5.0 mM GSH, data used PH) | Initial kinetics Avg k × 10^4 ([2]; 5.0 mM GSH, data used PH) | contrast enhancement of tumor (subcutaneous C26 tumors)
1 | CC1(C)CC(C(=O)O)C(C)(C)N1[O] (stereo not shown) [3-CP, 3-carboxy-2,2,5,5-tetramethyl-1-pyrrolidinyloxy] | 0.14 mM⁻¹ s⁻¹ | 636.8 M^−1 s^−1 and 624.5 M^−1 s^−1 and 614.8 M^−1 s^−1 | 2.547 s^−1 and 2.498 s^−1 and 2.459 s^−1 | 625 ± 22 M^−1 s^−1 | 636.0 M^−1 s^−1 and 599.0 M^−1 s^−1 and 597.3 M^−1 s^−1 | 2.504 s^−1 and 2.396 s^−1 and 2.389 s^−1 | 611 ± 44 M^−1 s^−1 | 295 M^−1 s^−1 | 1.18 s^−1 | 608.8 M^−1 s^−1 and 609.6 M^−1 s^−1 and 605.6 M^−1 s^−1 | 2.435 s^−1 and 2.438 s^−1 and 2.423 s^−1 | 608.0 ± 4.2 M^−1 s^−1 | 590.3 M^−1 s^−1 and 602.4 M^−1 s^−1 and 615.2 M^−1 s^−1 | 2.361 s^−1 and 2.410 s^−1 and 2.461 s^−1 | 602.6 ± 25 M^−1 s^−1 | 
2 | O=C([O-])CN(CCN(CC(=O)[O-])CC(=O)O)CCN(CC(=O)[O-])CC(=O)O.[Gd+3] [Gd-DTPA] |  |  |  |  |  |  |  |  |  |  |  |  |  |  |  | negligible contrast enhancement
